Assay results reported in patent publication US10709727B2, “Antiviral drugs” (priority 2015, dated 2020).

Assays:
HBV [1] = experiment: Effect of LIPG inhibitor on HBV in Huh7 cell line carrying HBV expression construct (Example 10); type: cell-based, hepatitis B virus; conditions: Huh7 cells, inhibitor 1 μM to 100 μM added five days after construct introduction, one week; depending on the concentration
Description: An HBV expression construct (HBV-C: provided by Dr. Yasuhito Tanaka at Nagoya City University) was introduced into Huh7 cell line. Five days after the introduction, an LIPG inhibitor (GSK264220A) was added at 1 μM to 100 μM and the cells were cultured.

HBV [2] = experiment: shRNA function against HBV infection of fresh human hepatocytes (PHH cells), short-term culture (Example 3); conditions: for amount of cccDNA: shRNA alone, lentivirus day 0, HBV day 1, collected day 7; for amount of cccDNA, combined use of ETV: shRNA plus entecavir (ETV) 10 nM from day 2, collected day 7 (short-term culture)
Description: Using fresh human hepatocytes (PHH cells) derived from PXB mouse (PhoenixBio Co., Ltd., Hiroshima, Japan), effects of shRNAs against each gene on infection of human hepatocytes with HBV were determined. Experiments were carried out by culturing PHH cells as follows. First, on day 0 of culture, the cells were infected with the lentivirus expressing the shRNA against each of the genes by a conventional method. A serum collected from an HBV-infected chimeric mouse infected with HBV (Genotype C. 5 HBV DNA copies/cell) was added to the cells as an HBV inoculum on day 1 of culture. On day 2 of culture, the cells were washed three times and entecavir (ETV) (10 nM) was added thereto. On day 7 of culture, the cells were collected and the amount of HBV DNA, the amount of HBV cccDNA, and the mRNA level of each gene were determined. The amounts of HBV DNA, HBV cccDNA, and pg RNA were quantified in the same manner as in Example 1.

HBV [3] = experiment: shRNA introduced after established HBV infection of PHHs (Example 6); type: cell-based, hepatitis B virus; conditions: shRNA introduced one week after HBV infection, cultured 3 weeks
Description: The effects of an shRNA on the proliferation of HBV when PHHs were infected with HBV and then treated with an shRNA were investigated. One week after PHHs were infected with HBV, the shRNA (SEQ ID NO: 2) against Dock11 gene was introduced and the cells were cultured for 3 weeks with culture medium changes.

DOCK11 gene = DOCK11 gene expression (mRNA) in Huh 7.5 cells (Example 8); conditions: Huh7.5 cells, vs cont shRNA
Description: The mRNA of DOCK11 gene was quantified by real time PCR according to a conventional method.
The antiviral activity of the shRNA against Dock11 gene was evaluated using a replicon system for JFH1 strain. HCV replication analysis was performed by transfecting Huh 7.5 cells with synthetic JFH1-RNA. Cells in which DOCK11 was constitutively knocked down were prepared by introducing DOCK11 shRNA #2 into Huh 7.5 cells. Cells into which cont shRNA was introduced were used as a control. Huh 7.5 cells into which each shRNA had been introduced were transfected with 1 μg synthetic RNA (JFH1-RNA) using TransIT®-mRNA Transfection Kit (Mirus). Total RNAs were isolated 24, 48 and 72 hours after the transfection using High Pure RNA Isolation Kit (Roche), and cDNAs were synthesized using high-capacity cDNA reverse transcription kit (Applied Biosystems, Carlsbad, Calif.). […] The expression of DOCK11 gene was evaluated by determining the level of mRNA in the same manner as in Example 2.

HCV = HCV replication analysis, JFH1-RNA transfected Huh 7.5 cells (Example 8); conditions: Huh7.5 cells, 24, 48 and 72 hours after introduction of HCV RNA (JFH1-RNA)
Description: The antiviral activity of the shRNA against Dock11 gene was evaluated using a replicon system for JFH1 strain. HCV replication analysis was performed by transfecting Huh 7.5 cells with synthetic JFH1-RNA. Cells in which DOCK11 was constitutively knocked down were prepared by introducing DOCK11 shRNA #2 into Huh 7.5 cells. Cells into which cont shRNA was introduced were used as a control. Huh 7.5 cells into which each shRNA had been introduced were transfected with 1 μg synthetic RNA (JFH1-RNA) using TransIT®-mRNA Transfection Kit (Mirus). Total RNAs were isolated 24, 48 and 72 hours after the transfection using High Pure RNA Isolation Kit (Roche), and cDNAs were synthesized using high-capacity cDNA reverse transcription kit (Applied Biosystems, Carlsbad, Calif.).

| Compound | amount of cccDNA (HBV [2]) | amount of cccDNA, combined use of ETV (HBV [2]) | further results |
| --- | --- | --- | --- |
| Cc1oc(S(=O)(=O)N2CCCCC2)cc1NC(=O)Nc1ccccc1 [GSK264220A] | – | – | amount of HBV DNA (HBV [1]): decreased; amount of HBV cccDNA (HBV [1]): decreased |
| DENND2A #2: lentivirus-expressed shRNA against DENND2A gene, SEQ ID NO: 7, used in Examples 3 and 4 (guide CCGGCCAATGAAGGAGAACCCTTATCTCGAGATAAGGGTTCTCCTTCATTGGTTTTTTG) | dramatically decreased | below the detection sensitivity | amount of cccDNA, combined use of ETV (HBV [2]; listed as shRNA for DENND2A gene): below the detection limit |
| DOCK11 #2: lentivirus-expressed shRNA against DOCK11 gene, SEQ ID NO: 2, used in Examples 3, 4, 6, 8, 12 (guide CCGGGTACTAGACACCATATCATTTCTCGAGAAATGATATGGTGTCTAGTACTTTTTG) | dramatically decreased | below the detection sensitivity | amount of cccDNA, combined use of ETV (HBV [2]; listed as shRNA for Dock11 gene): below the detection limit; cccDNA of HBV (HBV [3]): disappear; pgRNA of HBV (HBV [3]): disappear; expression level of DOCK11 gene (DOCK11 gene): decreased; HCV RNA replication (HCV): effectively suppressed |
| HECW2 #3: lentivirus-expressed shRNA against HECW2 gene, SEQ ID NO: 17, used in Examples 3 and 4 (guide CCGGGCACAATACTTGGAGTCAATTCTCGAGAATTGACTCCAAGTATTGTGCTTTTT) | decreased | synergistic effect to decrease cccDNA | – |
| LIPG #5: lentivirus-expressed shRNA against LIPG gene, SEQ ID NO: 14, used in Examples 3 and 4 (guide CCGGTTACACGGATGCGGTCAATAACTCGAGTTATTGACCGCATCCGTGTAATTTTTG) | decreased | synergistic effect to decrease cccDNA | – |
